Reference: ChEMBL document CHEMBL1201862, “PubChem BioAssay data set” (2004)
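1) Cells in 96-well plates. 2) Compound, 48 h, 5 concentrations. 3) Linear interpolation between surrounding doses. 4) Unreached endpoint = highest concentration. The concentration for 50% growth inhibition is given as GI50.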 Activity calls are given as the source filed them. No stated cut-off is given here; in the data, active = GI50 up to about 1.1 µM and inactive = higher. Square brackets hold non-standard residues; d marks the D form. Peptide text beside a SMILES is read from it. Phe(4-Cl) = N[CH](Cc1ccc(Cl)cc1)C(=O)O; 2Nal = N[CH](Cc1ccc2ccccc2c1)C(=O)O; 3Pal = N[CH](Cc1cccnc1)C(=O)O

Assays:
Experiment in all cases: growth of human tumour cells (NCI), 48 h
HCT-116 = tested on: HCT-116
OVCAR-3 = tested on: OVCAR-3
Malme-3M = tested on: Malme-3M
PC-3 = tested on: PC-3
NCI-H460 = tested on: NCI-H460
K562 = tested on: K562
ACHN = tested on: ACHN
CAKI-1 = tested on: CAKI-1
A498 = tested on: A498
KM12 = tested on: KM12
DU-145 = tested on: DU-145
NCI-H226 = tested on: NCI-H226
U-251 = tested on: U-251
RPMI-8226 = tested on: RPMI-8226
SW-620 = tested on: SW-620
SF-539 = tested on: SF-539
HCT-15 = tested on: HCT-15
HL-60 = tested on: HL-60
SK-OV-3 = tested on: SK-OV-3

| SMILES | GI50 (HCT-116) | GI50 (OVCAR-3) | GI50 (Malme-3M) | GI50 (PC-3) | GI50 (NCI-H460) | GI50 (K562) | GI50 (ACHN) | GI50 (CAKI-1) | GI50 (A498) | GI50 (KM12) | GI50 (DU-145) | GI50 (NCI-H226) | GI50 (U-251) | GI50 (RPMI-8226) | GI50 (SW-620) | GI50 (SF-539) | GI50 (HCT-15) | GI50 (HL-60) | GI50 (SK-OV-3) |
| --- | --- | --- | --- | --- | --- | --- | --- | --- | --- | --- | --- | --- | --- | --- | --- | --- | --- | --- | --- |
| O=C(Nc1nc2ccc([N+](=O)[O-])cc2[n+]([O-])n1)C(F)(F)F | 19.8 µM (inactive) | > 10 µM (inactive) | 8.02 µM (inactive) | 28.2 µM (inactive) | 14.3 µM (inactive) | 20 µM (inactive) | 22 µM (inactive) | 57.3 µM (inactive) | 29.6 µM (inactive) | 29.1 µM (inactive) | 37.9 µM (inactive) | 49.8 µM (inactive) | 30.2 µM (inactive) | 15 µM (inactive) | 37.6 µM (inactive) | 45.4 µM (inactive) | 16.6 µM | 12.9 µM (inactive) | – |
| CC(=O)NC(Cc1ccc2ccccc2c1)C(=O)NC(Cc1ccc(Cl)cc1)C(=O)NC(Cc1cccnc1)C(=O)NC(CO)C(=O)NC(Cc1ccc(O)cc1)C(=O)NC(CCCN=C(N)N)C(=O)NC(CC(C)C)C(=O)NC(CCCN=C(N)N)C(=O)N1CCCC1C(=O)NC(C)C(N)=O (centres undefined) (Ac-[2Nal][Phe(4-Cl)][3Pal]SYRLRPA-NH2; configuration not given here) | – | 49.9 µM (inactive) | 28.8 µM (inactive) | > 100 µM (inactive) | 95.5 µM (inactive) | > 100 µM (inactive) | > 100 µM (inactive) | > 100 µM (inactive) | > 100 µM (inactive) | > 100 µM (inactive) | > 100 µM (inactive) | > 100 µM (inactive) | > 100 µM (inactive) | > 100 µM (inactive) | > 100 µM (inactive) | > 100 µM (inactive) | > 100 µM | > 100 µM (inactive) | – |
| O=[N+]([O-])/C(C(Cl)=C(Cl)Cl)=C(\N1CCOCC1)n1nnc2ccccc21 | 18.7 µM (inactive) | 19.8 µM (inactive) | 18.4 µM (inactive) | 17.1 µM (inactive) | 19.4 µM (inactive) | – | 18.7 µM (inactive) | 17.7 µM (inactive) | 16.9 µM (inactive) | 20.2 µM (inactive) | 18.1 µM (inactive) | 26.8 µM (inactive) | 16.7 µM (inactive) | 52.6 µM (inactive) | – | 15.4 µM (inactive) | 15.4 µM | – | 27.2 µM (inactive) |
| COc1cc(Cn2c3c(c4c(C(=O)NCCN(C)C)c(O)ccc42)C(=O)c2ccccc2C3=O)cc(OC)c1 | 1.76 µM (inactive) | 1.73 µM (inactive) | 1.54 µM (inactive) | 1.7 µM (inactive) | 1.79 µM (inactive) | 1.37 µM (inactive) | 1.48 µM (inactive) | 1.68 µM (inactive) | 1.95 µM (inactive) | 1.58 µM (inactive) | 1.67 µM (inactive) | 6.87 µM (inactive) | 1.64 µM (inactive) | 1.87 µM (inactive) | – | 1.79 µM (inactive) | 1.88 µM | 2.04 µM (inactive) | 1.94 µM (inactive) |
| O=[N+]([O-])c1ccc2c(c1)C(N1CCN(CCO)CC1)Cc1ccc(F)cc1S2 (centres undefined) | 5 µM (inactive) | 16.4 µM (inactive) | – | 2.65 µM (inactive) | 8.61 µM (inactive) | 2.29 µM (inactive) | 4.44 µM (inactive) | 13.1 µM (inactive) | 11.6 µM (inactive) | 6.64 µM (inactive) | 14.8 µM (inactive) | 9.1 µM (inactive) | 10.1 µM (inactive) | – | 4.95 µM (inactive) | 6.22 µM (inactive) | 5.93 µM | 5.02 µM (inactive) | 17.3 µM (inactive) |
| NC(CSc1nc2ccccn2c1[N+](=O)[O-])C(=O)O (centres undefined) | > 100 µM (inactive) | > 100 µM (inactive) | > 100 µM (inactive) | > 100 µM (inactive) | > 100 µM (inactive) | > 100 µM (inactive) | > 100 µM (inactive) | > 100 µM (inactive) | > 100 µM (inactive) | > 100 µM (inactive) | > 100 µM (inactive) | > 100 µM (inactive) | > 100 µM (inactive) | > 100 µM (inactive) | > 100 µM (inactive) | > 100 µM (inactive) | > 100 µM | – | > 100 µM (inactive) |
